Data set [1] in a line: Population pharmacokinetics of caspofungin in critically ill patients receiving ECMO. Type of data set: in vivo, human. As to the method:
The present analysis is part of the ASAP ECMO study program that was conducted from November 2012 to November 2019 ([8]). The ASAP ECMO study was a prospective, open-labeled multicenter pharmacokinetic study performed in six ICUs across Australia, New Zealand, South Korea, and Switzerland. A detailed study protocol has been previously described elsewhere ([8], [9]), and as such, is only briefly outlined in this paper.
Patients were eligible for recruitment if they were adult (18–90 years old) ICU patients who were receiving caspofungin while undergoing ECMO therapy for cardiac and/or respiratory failure. Patients were excluded if they required massive blood transfusion (i.e., >50% of blood volume in the preceding 8 hours), received therapeutic plasma exchange in the preceding 24 hours, had bilirubin >150 µmol/L, were pregnant, or were known to be allergic to caspofungin.
Caspofungin was reconstituted and administered as an intermittent intravenous infusion in accordance with the standard administration protocol at each participating center. Caspofungin dosing regimens, ECMO modalities/configurations, and all other subsequent patient management (e.g., RRT application) were determined by the treating clinician in accordance with local clinical guidelines and practices.
Pharmacokinetic sampling was performed during a single dosing interval once the patient had been stabilized on ECMO. Blood samples were drawn from an existing arterial line and were collected into lithium-heparinized tubes. Blood samples were collected at 0, 0.25, 0.5, 0.75, 1, 1.5, 2, 3, 6, 8, 12, and 24 hours after commencement of infusion.
The blood samples were centrifuged at 3,000 × g for 10 minutes to obtain plasma, which was then frozen at –80°C and stored locally at participating sites. The frozen plasma samples were shipped on dry ice by a commercial courier company to the central bioanalysis laboratory at the University of Queensland Centre for Clinical Research (UQCCR) for bioanalysis.
Total caspofungin concentrations in plasma were measured by a validated ultra-high performance liquid chromatography method on a Nexera X2 system connected to a Shimadzu 8030 + triple quadrupole mass spectrometer (Shimadzu Corporation, Kyoto, Japan). Dicloxacillin was used as the internal standard. The assay was performed in batches, and samples were analyzed concurrently with calibration standards and quality-control replicates at high (18 mg/L), medium (3 mg/L), and low (0.6 mg/L) concentrations. The assay limit for caspofungin in plasma was 0.1 mg/L and linearity was established within a range of 0.1–20 mg/L. Precision and accuracy at three different concentrations were all within 12%. Bioanalysis methods were performed in accordance with the U.S. Food and Drug Administration’s guidance for industry on bioanalysis ([10]).
Plasma concentration-time data for caspofungin were analyzed using a nonlinear mixed-effect modeling approach in Monolix version 2021R2 (Lixoft, Antony, France) implementing the stochastic approximation expectation maximization (SAEM) algorithm. Plasma concentration-time data for caspofungin were fitted to one- and two-compartment disposition models with first-order elimination. Between-subject variability (BSV or ω) was described using an exponential model: […]

The conditions of data set [2]: human, in vivo; cited from earlier work. An excerpt:
It is challenging to ascertain the optimal dosing regimen for caspofungin based on MIC breakpoints. The European Committee on Antimicrobial Susceptibility Testing (EUCAST) MIC breakpoints have yet to be established for caspofungin against Candida spp. due to significant interlaboratory variation in MIC reporting ([18]). Until this problem is resolved, Candida isolates that are susceptible to anidulafungin and micafungin should also be considered susceptible to caspofungin.

The conditions of data set [3]: human, in vivo; cited from earlier work. This is another data set of the same source.
Details of data set [4]: method as in PMID 17660480, PMID 11850256. To be noted: human, in vivo; cited from earlier work.

Data on 1 molecule can be found in article PMC11823646, “Population pharmacokinetics of caspofungin in critically ill patients receiving extracorporeal membrane oxygenation—an ASAP ECMO study” (Antimicrobial Agents and Chemotherapy, 2024).

Each structure is given as a SMILES string.

Regarding `CC[C@H](C)C[C@H](C)CCCCCCCCC(=O)N[C@H]1C[C@@H](O)[C@@H](NCCN)NC(=O)[C@@H]2[C@@H](O)CCN2C(=O)[C@H]([C@H](O)CCN)NC(=O)[C@H]([C@H](O)[C@@H](O)c2ccc(O)cc2)NC(=O)[C@@H]2C[C@@H](O)CN2C(=O)[C@H]([C@@H](C)O)NC1=O` [caspofungin], the “impact of ECMO on caspofungin pharmacokinetics” value in data set [1] (ECMO duration, mode and flow rate tested as covariates, no significant effect) is recorded as “negligible impact”. Besides, the “LBW effect on V, Estimate (%RSE)” value in data set [1] (exponent in V=Vpop × (LBW/58.9)^1.24, final model) is given as 1.24 (23.3). In data set [1] (human, plasma, 8 critically ill patients on ECMO, maintenance dose 50 or 70 mg daily IV, median, read-out: median AUC0–24 exposure), the AUC(0-t) was 115 µg·h/mL. Further, the “CL, Estimate (%RSE)” value in data set [1] (typical population value, final one-compartment model with first-order elimination, 8 ECMO patients, 64 total plasma concentrations (UHPLC-MS/MS), IV infusion, LD 70 mg then 50 or 70 mg daily) is reported as 0.55 (11.9) L/h. For the same molecule, the “V, Estimate (%RSE)” value in data set [1] (typical population value, final one-compartment model, LBW centred on 58.9 kg, 8 ECMO patients, 64 total plasma concentrations) is recorded as 8.13 (7.15) L. Also, the “dose demonstrated to be safe” value in data set [2] is listed as “up to 200 mg/day”. Also, in data set [3], the “AUC0–24 exposure reported in ICU patients” value is 74 to 135 µg·h/mL, the “typical clearance in other studies” value is on record as 0.27 to 0.98 L/h and the “typical volume of distribution in other studies” value is reported as 6.19 to 20.91 L. Besides, the “AUC0–24 exposure in healthy volunteers” value in data set [4] was 98 µg·h/mL.
